The text below walks through data of patent publication US20090220537A1, “VACCINE DELIVERY SYSTEM” (THE UNIVERSITY OF QUEENSLAND, priority 2005, published 2009).

Assay [1] has as its system RSV. The assay is classed as in vivo, mice.
Assay [2] deals with E7-expressing TC-1 tumour cells. Type of assay: in vivo. Conditions: H-2b mice immunised twice, 2×10^5 TC-1 cells two weeks after second immunisation; within 15 days; FIG. 6C.

On to “ESYIGSINNITKQSA [M215 peptide + adjuvant]”, for which the “Mean RSV load per ½-lung in mice with detectable infection” value in assay [1] (BALB/c mice challenged intranasally with 8×10^5 pfu RSV, lungs 4 days later, immunofocus assay) is on record as 1.0 × 10^3 pfu. In addition, the “Number of mice (%) with detectable RSV in lungs” value in assay [1] (BALB/c mice, 5 per group, challenged intranasally with 8×10^5 pfu RSV 3 weeks after immunisation, lungs 4 days later, limit of detection 5×10^2 pfu/lung, listed as M15 peptide+adjuvant) is listed as “One of five”. Further, the “RSV-specific immunostaining of lung cryosections” value in assay [1] (indirect immunofluorescence, 4 days after challenge, FIG. 5) was “reduced staining”.
Take RAHYNIVTF [RAH peptide+adjuvant]: the “Mice that developed tumour” value in assay [2] is given as “level of protection was consistent with that observed”.
